Molecules are shown by their SMILES.

From the METLIN SMRT retention time set (Domingo-Almenara et al. 2019) come the findings set out here.

This series in a line: gradient 5% acetonitrile 3 min, to 50% in 2 min, to 85% in 15 min, held 3 min, 100 µL/min. Conditions: column: Zorbax Extend-C18 2.1 x 50 mm; eluents: water / acetonitrile, 0.1% formic acid. The essentials: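 Retention time was recorded from adduct peaks, which were picked computationally and each inspected manually. Pure standards ran in mixtures of ~100 molecules on HPLC coupled to a quadrupole time-of-flight mass spectrometer, in positive and negative ionization mode, through a Zorbax Extend-C18 column (2.1 × 50 mm, 1.8 μm) at 100 μL/min. Eluents were water and acetonitrile, each with 0.1% formic acid.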
The compound `CCOC(=O)c1ccc(NC(=O)Cn2c(=O)n(-c3ccccc3)c(=O)c3c2cc(C)n3C)cc1` registered an RP-LC retention time of 854 s.

The compound `O=C(C1CCC1)N1CCC(c2noc(-c3cnccn3)n2)C1` (centres undefined) yielded an RP-LC retention time of 655 s.

The compound `CC(C)(C)C(=O)N1CCC(OC2CCN(Cc3ccccc3)CC2)CC1` came in with an RP-LC retention time of 638 s.

`Cc1ccccc1-c1nn2c(CSc3ccccc3)nnc2s1` registered an RP-LC retention time of 1030 s.

Compound `Cc1cc(C(=O)Nc2ccccc2I)n(-c2ccccc2)n1` yielded an RP-LC retention time of 974 s.

In the case of `CCn1nccc1C(=O)N1CCc2c(-c3ccc(OC)cc3)cccc2[C@H]1C`, the RP-LC retention time was 1040 s.

`CN1c2ccc(Cl)cc2C(=O)NC12CCN(C(=O)Nc1ccc(F)cc1)CC2` gave an RP-LC retention time of 788 s.

The compound `Cc1ccc(N2CCN(S(=O)(=O)N(C)C)CC2)cc1Cl` returned an RP-LC retention time of 990 s.

As to `COc1ccc(N2CCN(c3cc(SCC(=O)Nc4ccc(C)cc4F)ncn3)CC2)cc1`, the RP-LC retention time came to 1110 s.

`CC(=O)N1c2ccc(S(=O)(=O)N3CCC(C(=O)Nc4cccc(Cl)c4C)CC3)cc2CC1C` (centres undefined) showed an RP-LC retention time of 895 s.

For `CCC(=O)NCCc1csc(C2CCN(C(=O)CC3CCCCC3)CC2)n1`, the RP-LC retention time stood at 765 s.

`Cc1nc(-c2nc(-c3cccs3)cs2)cn1CC(=O)Nc1cccc(F)c1` came in with an RP-LC retention time of 814 s.

As for `CCOCCCNC(=O)C1CCN(C2=NS(=O)(=O)C(c3ccc(C)c(C)c3)=C2C)CC1`, the RP-LC retention time came out at 786 s.

The compound `CCC(=O)N1CCN(c2nc(C)cc(N3CCCC3)n2)CC1` gave an RP-LC retention time of 604 s.

Take `O=C1CC(c2ccco2)Cc2[nH]c(=O)c(C(=O)Nc3ccccc3C(F)(F)F)cc21` (centres undefined): the RP-LC retention time came out at 746 s.

`COc1ccc(-c2noc(C3CCCN3C(=O)c3ccsc3)n2)cc1` (centres undefined) showed an RP-LC retention time of 849 s.

For the compound `COc1ccccc1CN1C[C@@H]2C(=O)N(Cc3ccc4c(c3)OCO4)C(=O)[C@@H]2C1`, the RP-LC retention time amounted to 724 s.

The compound `CC(C)CCNC(=O)CCSC1CCc2ccccc2NC1=O` (centres undefined) gave an RP-LC retention time of 777 s.

`O=C(NCc1nnnn1C1CCCCC1)c1ccccc1C(F)(F)F` showed an RP-LC retention time of 782 s.

In turn, `COCCN1CCC2(CC1)CN(Cc1ccc(Cl)c(F)c1)Cc1ccccc1O2` had an RP-LC retention time of 751 s.

In the case of `CCOC(=O)CC1(NC(=O)N2CCN(c3nc4ccccc4n3CC)CC2)CCCCC1`, the RP-LC retention time came to 703 s.

`CN1CCN(CCNC(=O)c2nn(-c3ccc(Cl)cc3)c3c(=O)n(C)cnc23)CC1` gave an RP-LC retention time of 602 s.

`O=S(=O)(Cc1ccccc1F)N1CCOc2ccc(N3CCOCC3)cc2C1` yielded an RP-LC retention time of 861 s.

In the case of `COC(=O)C1=CN(c2ccccc2)c2ccc(F)cc2S1(=O)=O`, the RP-LC retention time stood at 817 s.

The compound `CCn1cc(-c2nc(CC(=O)NCc3ccccc3Cl)cs2)c2cccnc21` had an RP-LC retention time of 924 s.

The compound `C[C@H]1CN(C(=O)Nc2ccc3c(c2)CCC3)C[C@@H]1c1nc(-c2ccncc2)no1` yielded an RP-LC retention time of 888 s.

For the compound `Cc1ncsc1CN1CCc2nn(Cc3ccccc3)c(=O)n2CC1`, the RP-LC retention time worked out at 604 s.

Regarding `Cc1cccc(-n2c(=O)c3c(cc(C)n3C)n(CC(=O)Nc3ccc(C)c(Cl)c3)c2=O)c1`, the RP-LC retention time worked out at 960 s.

For `O=C(NCC1CCCO1)c1nnc(-c2ccc(S(=O)(=O)N3CCCC3)cc2)o1` (centres undefined), the RP-LC retention time stood at 729 s.

Compound `COCCCNC(=O)c1ccc(-c2ccc(N3CCSCC3)nc2)cc1` came in with an RP-LC retention time of 646 s.

The compound `Cc1ccc(-c2noc(Cn3c(=O)n(Cc4ccco4)c(=O)c4ccccc43)n2)cc1` displayed an RP-LC retention time of 1110 s.

Compound `CCC(C(=O)N1CCN(C(=O)c2ccco2)CC1)n1c2ccccc2c2cnn(C)c(=O)c21` (centres undefined) showed an RP-LC retention time of 801 s.

Compound `c1ccc(CNc2nc(-c3ccncc3)nc3c2CCC3)nc1` returned an RP-LC retention time of 555 s.

For `O=C(NCC1OCCc2ccccc21)C(=O)N1CCCCC1` (centres undefined), the RP-LC retention time stood at 716 s.

For the compound `CCCN(C(=O)CC(=O)OC)c1nc(-c2ccc(Br)cc2)cs1`, the RP-LC retention time worked out at 1240 s.

As for `CCc1ccccc1NC(=O)Cn1nc(N2CCCC(C)C2)c2ccccc2c1=O` (centres undefined), the RP-LC retention time was found to be 1180 s.

Regarding `Cc1ccc(C2CN(S(=O)(=O)c3ccccc3)CCN2C)cc1` (centres undefined), the RP-LC retention time worked out at 603 s.

`Cc1cccc(NC(=O)Cn2ccc3ccc(-c4nnc(C)o4)cc32)c1`: the RP-LC retention time came out at 814 s.

Take `Cc1nn(-c2cc(N3CCCCC3)ncn2)c(C)c1CCC(=O)NCc1ccco1`: the RP-LC retention time is 811 s.

The compound `CC(C)(C)CC(=O)N1CCCC(C(=O)N2CCOCC2)C1` (centres undefined) returned an RP-LC retention time of 673 s.

Turning to `COc1cc(OC)c(NC(=O)C(=O)c2ccc[nH]2)cc1Cl`, the RP-LC retention time is 978 s.

For `Cc1c([C@@H](C)C2NC[C@@H](C)C[C@H]2O)ccc2c1C[C@@H]1[C@H]2CC=C2C[C@@H](O)CC[C@@]21C` (some centres undefined), the RP-LC retention time was determined as 749 s.

As for `CC(=O)N1c2ccc(S(=O)(=O)N3CCCC3C(=O)NCc3ccc4c(c3)OCO4)cc2CC1C` (centres undefined), the RP-LC retention time was determined as 779 s.

Take `CCOc1ccccc1NC(=O)N1CC(N(CC)C2CCOCC2)C1`: the RP-LC retention time worked out at 561 s.

`COc1ccc(C(=O)N2CCN(C(=O)c3ccco3)CC2)nn1` displayed an RP-LC retention time of 576 s.

`O=C(NCC1CCCO1)C1CCN(c2ncnc3c2oc2ccccc23)CC1` (centres undefined) had an RP-LC retention time of 618 s.

Take `O=c1c2c(CO)c(-c3ccccc3)nn2ccn1Cc1ccc(Br)cc1`: the RP-LC retention time came to 1010 s.

As to `O=C(Cn1ccc2sccc2c1=O)Nc1cccc(F)c1`, the RP-LC retention time amounted to 746 s.

Consider `COCCNC(=O)c1nnc(-c2ccc(S(=O)(=O)N3CCOCC3)cc2)o1`, for which the RP-LC retention time amounted to 668 s.

`Cn1c(C(=O)N2CCN(c3ncccn3)CC2)cc2c(-c3cccs3)nn(-c3ccccc3)c21` registered an RP-LC retention time of 1030 s.

As to `COCC(=O)N(CC(=O)N1CCc2sccc2C1COc1ccc(Cl)cc1)C(C)C` (centres undefined), the RP-LC retention time turned out to be 909 s.

Turning to `COc1ccc(-c2nc3ccc(C)cn3c2Nc2ccccc2C)cc1`, the RP-LC retention time is 761 s.

Regarding `O=C(Nc1ccc(OCc2nnc(-c3ccc(F)cc3)o2)cc1)c1cccnc1`, the RP-LC retention time was 720 s.

`Cc1nnc(N2CCCC(C(=O)N3CCc4ccccc43)C2)c2nn(-c3ccc(Cl)cc3)c(C)c12` (centres undefined): the RP-LC retention time is 850 s.

`CC(C)c1noc(-c2cc(=O)n(CC(=O)Nc3cccc(C#N)c3)c3ccccc23)n1` showed an RP-LC retention time of 967 s.

On to `Cc1cccc2cc(-c3noc(-c4ccccc4)n3)c(NCCc3ccc(S(N)(=O)=O)cc3)nc12`, for which the RP-LC retention time is 1440 s.

As to `Cc1nnc(-c2ccc(=O)n(CC(=O)NCc3ccc(F)c(Cl)c3)c2)o1`, the RP-LC retention time turned out to be 672 s.

Consider `O=c1ccc(-c2cccs2)nn1CCCNS(=O)(=O)c1cccc(Cl)c1Cl`, for which the RP-LC retention time is 856 s.

As to `COc1cccc(N2CC(C(=O)Nc3nnc(-c4csc(C)n4)o3)CC2=O)c1` (centres undefined), the RP-LC retention time came out at 817 s.

Regarding `COc1ccc(-c2ccnc3nc(Cc4ccc(F)cc4)nn23)c(F)c1`, the RP-LC retention time came out at 906 s.

The compound `CCOC(=O)C1CCN(Cc2nc(-c3ccc(N4CCCCC4)nc3)no2)CC1` registered an RP-LC retention time of 664 s.

Consider `Cc1cccc(OCc2ccc(-c3nc(C#N)c(NCCN(C)C)o3)o2)c1`, for which the RP-LC retention time was 708 s.

As to `COc1ccc(S(=O)(=O)N2CCC(c3noc(-c4cccc(F)c4)n3)CC2)cc1`, the RP-LC retention time is 1100 s.

`CC(=O)Nc1ccc(N(Cc2nnc3n2CCCCC3)C(=O)Nc2cccc(Cl)c2)cc1` displayed an RP-LC retention time of 691 s.

Compound `COc1cccc(NC(=O)Cn2c(N)nc(C)cc2=O)c1` yielded an RP-LC retention time of 581 s.

In the case of `CCn1cc2c3c(cccc31)CN(C(=O)Nc1ccc(C)cc1)CC2`, the RP-LC retention time was determined as 978 s.

The compound `Cc1ccccc1Cn1cc(-c2ccncc2)cc1C(=O)NCc1ccccc1` displayed an RP-LC retention time of 735 s.

`Cc1ccc(-c2cc3c4nnc(SCC(=O)NCCC(C)C)n4ccn3n2)cc1C` had an RP-LC retention time of 942 s.

Consider `O=C(C1CCCN(c2ncnc3c2nc2n3CCCCC2)C1)N1CCc2ccccc21` (centres undefined), for which the RP-LC retention time came out at 860 s.

In turn, `CCOc1ccc(NS(=O)(=O)c2cc(C(=O)Nc3ccc(Br)cc3)n[nH]2)cc1` came in with an RP-LC retention time of 927 s.

The compound `CN(C)c1ccc(NC(=O)c2cn(-c3ccc(F)cc3)nn2)cc1` gave an RP-LC retention time of 675 s.

`CC(CCc1ccccc1)NC(=O)CCc1c(-c2ccc(Cl)cc2)nc2ccccn12` (centres undefined) displayed an RP-LC retention time of 774 s.

With `CCOc1cccc(-c2noc(-c3nn(-c4ccc(C)c(C)c4)ccc3=O)n2)c1`, the RP-LC retention time was 1060 s.

`CN1C(=O)CCc2cc(NC(=O)C3CCC3)ccc21` returned an RP-LC retention time of 668 s.

Turning to `CCOc1ccccc1N1CCN(C(=O)C2CCN(c3ncnc4c3oc3ccccc34)CC2)CC1`, the RP-LC retention time turned out to be 814 s.

`CCCCS(=O)(=O)c1cc2c(cc1NC(=O)c1cccc(C)c1)n(C)c(=O)n2C`: the RP-LC retention time amounted to 981 s.

In the case of `Clc1ccc(Cn2c(CN3CCCC3)nc3ccccc32)cc1`, the RP-LC retention time was determined as 750 s.

With `Cc1cc(C)cc(N2C=C(C(=O)N3CCOCC3)S(=O)(=O)c3ccc(F)cc32)c1`, the RP-LC retention time was 788 s.

For `CN1CCCc2cc(C(CNC(=O)C(=O)Nc3ccc4c(c3)OCCO4)N3CCCCC3)ccc21` (centres undefined), the RP-LC retention time came to 742 s.
